Assay results from patent EP0974573A1, “PHENYLPROPENONE COMPOUNDS AND MEDICINES CONTAINING THE SAME” (Kabushiki Kaisha Yakult Honsha, priority 1997, dated 1998).

Columns and labels:
SD rats [1] = test: Plasma cholesterol elevation inhibitory effects of Compound 6 on rats, oral suspension in carboxymethylcellulose (Test 10); format: in vivo, rat; details: 7 days; for HDLC: plasma HDL cholesterol; for PL: plasma phospholipid; for TC: plasma total cholesterol; for TG: plasma triglyceride
From the text: Using 5-week old male SD rats (120-150 g, 8 rats per group, group feeding), plasma cholesterol elevation inhibitory effects of compound 6 in Examples on rats were studied.
To rats in a control group, only a 1.5% aqueous solution of carboxymethylcellulose was orally administered once a day for 7 days. During the last 3 days, a hyperlipemia inducing diet [a feed prepared by adding 1.5% of cholesterol, 0.5% of cholic acid, 10% of coconut oil and 10% of sugar to "F-2 Diet" (product of FUNABASHI FARM CO., LTD.)] was given ad libitum. To rats in a control group (normal diet), however, a feed (normal diet) similar to the hyperlipemia inducing diet except for the exclusion of cholesterol was given ad libitum.
To test-compound-administered groups, on the other hand, compound 6 suspended in a 1.5% aqueous solution of carboxymethylcellulose was continuously and orally administered at dosages of 5, 10 and 20 mg/kg/day, respectively, once a day for 7 days. During the last 3 days, a hyperlipemia inducing diet [a feed prepared by adding 1.5% of cholesterol, 0.5% of cholic acid, 10% of coconut oil and 10% of sugar to "F-2 Diet" (product of FUNABASHI FARM CO., LTD.)] was given ad libitum.
On the 4th day after the initiation of feeding of the hyperlipemia inducing diet and the normal diet, bloods were drawn from the abdominal aortas of the individual rats under anesthesia with Nembutal. Subsequent to collection of plasma from each blood sample, the plasma cholesterol was quantitated by an "AUTOSERA S-CHO KIT" (product of Daiichi Pure Chemicals Co., Ltd.), the plasma triglyceride was guantitated by an "AUTOSERA TG-N KIT" (product of Daiichi Pure Chemicals Co., Ltd.), and the plasma phospholipid was quantitated by an "AUTOSERA PL KIT" (product of Daiichi Pure Chemicals Co., Ltd.). Further, the HDL cholesterol was quantitated by an "AUTOSERA S-CHO KIT" (product of Daiichi Pure Chemicals Co., Ltd.) after fractionating it by a "DETERMINER HDL KIT" (product of Kyowa Medex Co., Ltd.). The liver lipid level was quantitated by a commercial measuring kit in a similar manner as in the measurement of plasma lipid subsequent to its extraction by the Folch's method. Statistical processing of the data so obtained was conducted by the Dunnet's test.

SD rats [2] = test: Provisional toxicity test of Compound 6; format: in vivo, rat; details: female SD rats, oral by stomach tube in 1.5% CMC, 14 days or 28 days, 100, 250 or 250 mg/kg/day
Method: Concerning Compound 6, a provisional toxicity test was conducted.
Using female SD rats (5-weeks old), the test was conducted at a size of 6 rats per group. The animals were subjected to group feeding, and were allowed to take both "F-2 Feed" (product of FUNABASHI FARM CO., LTD.) and tap water ad libitum.
Compound 6 which had been suspended in a 1.5% aqueous solution of CMC was continuously and orally administered by a stomach tube for 14 days or 28 days such that the dosage became 100, 250 or 250 mg/kg/day. To a control group, on the other hand, an aqueous solution of CMC was administered.
Therefore, safety has been confirmed.

rat-derived ACAT = test: Inhibitory effects on rat-derived ACAT (Test 1); format: biochemical; details: crude enzyme from microsome protein fractions of rat liver, (14C)-oleoyl-CoA substrate, 37°C
Method: To test effects on ACAT, a reaction was conducted in vitro to form (^14C)-cholesteryl oleate from endogeneous cholesterol in the presence of (^14C)-oleoyl-CoA as a substrate by using a crude enzyme prepared from microzome protein fractions of a rat liver.
The reaction mixture had the following composition: 20 µℓ of microsome protein (1.83 mg/mℓ), 20 µℓ of (^14C)-oleoyl-CoA (5 µCi/mℓ, BSA: 96 nmol/mℓ), 106 µℓ of 100 mM phosphate buffer (containing 5 mM of dithiothreitol, pH 7.4) and a sample dissolved in 4 µℓ of methanol or dimethyl sulfoxide; 150 µℓ in total.
The reaction was conducted at 37°C. After an elapse of a predetermined reaction time (18 minutes in general), a 2:1 mixture of chloroform and methanol (5.65 mℓ) was added to terminate the reaction. A 0.04 N aquous solution of hydrochloric acid (0.98 mℓ) and as a carrier, cholesteryl oleate were added, followed by extraction for 20 minutes on a shaking apparatus. The mixture was then allowed to stand overnight in a cold dark place. On the following day, the separated lower chloroform layer was extracted in its entirety and was dried under a nitrogen gas stream. The remaining upper layer was added with the lower layer (5.65 mℓ) of the Folch's partition solution, and was extracted again. After the mixture was allowed to stand overnight in a dark place, the lower layer was drawn in its entirety. This lower layer was combined with the lower chloroform layer fraction, which had already been dried to solid, and the mixture was then dried to solid.
The solid was then dissolved in chlorofrom (200 µℓ), and the solution was coated in its entirety on a G60 plate (aluminum sheet) for silica gel thin layer chromatography. After the solid was developedover 10 cm with a 10:190 mixture of diethyl ether and petroleum ether, autoradiography was conducted and the formation of (^14C)-colesteryl oleate was confirmed. This section was then cut off. The radioactivity of each sample was measured by subjecting it to liquid scintillation counting for 5 minutes in toluene or was measured for 30 minutes by a "Betascope" (manufactured by BETA-GEN INC. The results so obtained are shown in Table 1. Table 1

SD rats [3] = test: Plasma cholesterol elevation inhibitory effects on rats loaded with high cholesterol diet, feed-mixed administration (Test 3); format: in vivo, rat; details: 0.005% of compound added to hyperlipemia inducing diet, ad libitum 3 days
From the text: Using 5-week old male SD rats (120-150 g, 10 rats per group, individual feeding), plasma cholesterol elevation inhibitory effects of various compounds in the Examples on rats were studied. To a control group, a feed which had been prepared by adding 1.5% of cholesterol, 0.5% of cholic acid, 10% of coconut oil and 10% of sugar to "F-2 Diet" (product of FUNABASHI FARM CO., LTD.) was given ad libitum as a hyperlipemia inducing diet.
To each test-compound-administered group, on the other hand, a feed which had been prepared by adding 0.005% of the corresponding compound in the Examples to the hyperlipemia inducing diet of the above-described composition was given ad libitum. Further, a normal diet group to which a feed similar to the hyperlipemia inducing diet except for the exclusion of cholesterol was also tested similarly. As a testing method, after these feeds were given ad libitum for 3 days, bloods were drawn on the 4th day from the abdominal aortas of the individual rats under anesthesia with Nembutal. Subsequent to collection of plasma from each blood sample, the plasma cholesterol was quantitated by a "DETERMINER TC555 KIT" (product of Kyowa Medex Co., Ltd.) while the HDL cholesterol was quantitated by "DETERMINER HDL KIT" (product of Kyowa Medex Co., Ltd.). The liver cholesterol was measured by extracting it in accordance with the Folch's method and then measuring it with a "DETERMINER TC555 KIT". Statistical processing of the data so obtained was conducted by the Danett's test.

[4] = 5 mg/kg oral in carboxymethylcellulose
[5] = 10 mg/kg oral in carboxymethylcellulose
[6] = 20 mg/kg oral in carboxymethylcellulose

With `CCCCCCCCOc1c(OC)cc(/C=C/C(=O)NN2CCN(c3ccc(C)c(C)c3)CC2)cc1OC` [Compound 6, N-[4-(3,4-dimethylphenyl)-1,4-diazacyclohexyl]-(2E)-3-(3,5-dimethoxy-4-octyloxyphenyl)-2-propenamide] the “Inhibitory rate (%) of plasma total cholesterol elevation” value (SD rats [1]; 5 mg/kg/day oral in 1.5% carboxymethylcellulose) was 34%, the “Inhibitory rate (%) of plasma total cholesterol elevation” value (SD rats [1]; 10 mg/kg/day oral in 1.5% carboxymethylcellulose) was 57% and the “Inhibitory rate (%) of plasma total cholesterol elevation” value (SD rats [1]; 20 mg/kg/day oral in 1.5% carboxymethylcellulose) was 66%. The “HDLC” value (SD rats [1]; [4]) was 19.3 ± 4.5 mg/dL, the “HDLC” value (SD rats [1]; [5]) was 20.5 ± 4.0 mg/dL and the “HDLC” value (SD rats [1]; [6]) was 22.8 ± 2.2 mg/dL. For the same molecule, the “PL” value (SD rats [1]; [4]) was 243.2 ± 42.5 mg/dL, the “PL” value (SD rats [1]; [5]) was 206.7 ± 50.6 mg/dL and the “PL” value (SD rats [1]; [6]) was 203.6 ± 21.3 mg/dL. For the same molecule, the “TC” value (SD rats [1]; [4]) was 303.1 ± 99.4 mg/dL, the “TC” value (SD rats [1]; [5]) was 226.6 ± 94.7 mg/dL and the “TC” value (SD rats [1]; [6]) was 196.8 ± 44.1 mg/dL. For the same molecule, the “TG” value (SD rats [1]; [4]) was 202.3 ± 99.7 mg/dL, the “TG” value (SD rats [1]; [5]) was 159.0 ± 68.6 mg/dL and the “TG” value (SD rats [1]; [6]) was 187.6 ± 79.3 mg/dL. For the same molecule, the “difference between administered groups and control group in external appearance and results of various biochemical tests” value (SD rats [2]) was “no difference was observed”, the IC50 (rat-derived ACAT) was 11 nM and the “Inhibitory rate (%) of plasma total cholesterol elevation in rat” value (SD rats [3]) was 79%.
